# Laboratory results from the supplement of paper PMC11208160.
# Assay: recombinant UMI read abundance after kanamycin selection (control-corrected) (log10(CPM+1)); higher = more efficient recombination; extreme values may be limits of the assay; sequences stand for … in AGTGCAGAGAAAATCGGCCAGTTTTCTCTGCCTGCAGTCCGCATGCCGTGGGACCCCTTGGGTTCTAACCTGTTGCCTAGATTTATGCAGCGGACTGCCTTTCTCCCAAAGTGATAAACCGG…AGGTTGGTTTCACT; site = the 11-nt donor
# In short: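 Values, expressed as log10(CPM+1), derive from recombinant UMI counts converted to CPM, averaged across replicates and scaled by control-derived factors. Plating was with IPTG (0.07 mM) plus kanamycin or unselected, two replicates each. The screen pooled donor and donor-binding-loop pairs for the IS621 bridge recombinase in Escherichia coli.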
# 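Also: IS621 bridge recombinase in Escherichia coli cells against a fixed T5 target plasmid.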
row,Sequence,recombinant UMI read abundance (log10)
1,TACCGTTCATGGACCGGTTTTCCCGGTAATCCGTATTTGTT (site TACCGTTCTAA),0.218
2,TACCTCCCATGGACCGGTTTTCCCGGTAATCCGTATTTGGC (site TACCTCCCTGC),0
3,TACCTGCCATGGACCGGTTTTCCCGGTAATCCGTATTTGTA (site TACCTGCCTTA),0.0209
4,TACCTTACATGGACCGGTTTTCCCGGTAATCCGTATTTGGA (site TACCTTACTTC),0.0267
5,TACGCACCATGGACCGGTTTTCCCGGTAATCCGTATTTGAG (site TACGCACCTCT),0.0119
6,TACGGATCATGGACCGGTTTTCCCGGTAATCCGTATTTGTA (site TACGGATCTTA),0.989
7,TACGGTACATGGACCGGTTTTCCCGGTAATCCGTATTTGTG (site TACGGTACTCA),0.582
8,TACGGTGCATGGACCGGTTTTCCCGGTAATCCGTATTTGAC (site TACGGTGCTGT),1.15
9,TACGTGACATGGACCGGTTTTCCCGGTAATCCGTATTTGCT (site TACATGACTAG),1.65
10,TACGTGACATGGACCGGTTTTCCCGGTAATCCGTATTTGCT (site TACCTGACTAG),0.0236
11,TACGTGACATGGACCGGTTTTCCCGGTAATCCGTATTTGCT (site TACGTGACTAG),2.43
12,TACGTGACATGGACCGGTTTTCCCGGTAATCCGTATTTGCT (site TACTTGACTAG),0.238
13,TACTAGGCATGGACCGGTTTTCCCGGTAATCCGTATTTGGT (site TACTAGGCTAC),0.225
14,TACTAGGCATGGACCGGTTTTCCCGGTAATCCGTATTTGGT (site TCCTAGGCTAC),0.0602
15,TACTAGGCATGGACCGGTTTTCCCGGTAATCCGTATTTGGT (site TGCTAGGCTAC),0.0175
16,TACTAGGCATGGACCGGTTTTCCCGGTAATCCGTATTTGGT (site TTCTAGGCTAC),0.00516
17,TACTATGCATGGACCGGTTTTCCCGGTAATCCGTATTTGCG (site TACTATGCTCG),0.64
18,TACTGGACATGGACCGGTTTTCCCGGTAATCCGTATTTGCT (site TACTAGACTAG),0.948
19,TACTGGACATGGACCGGTTTTCCCGGTAATCCGTATTTGCT (site TACTCGACTAG),0.188

row,Sequence,recombinant UMI read abundance (log10)
1,TACTGGACATGGACCGGTTTTCCCGGTAATCCGTATTTGCT (site TACTGGACTAG),2.01
2,TACTGGACATGGACCGGTTTTCCCGGTAATCCGTATTTGCT (site TACTTGACTAG),0.00209
3,TACTTGACATGGACCGGTTTTCCCGGTAATCCGTATTTGCC (site TACTTGACTAG),0.0078
4,TACTTGACATGGACCGGTTTTCCCGGTAATCCGTATTTGCC (site TACTTGACTCG),0.0284
5,TACTTGACATGGACCGGTTTTCCCGGTAATCCGTATTTGCC (site TACTTGACTGG),0
6,TACTTGACATGGACCGGTTTTCCCGGTAATCCGTATTTGCC (site TACTTGACTTG),0.00491
7,TACTTGACATGGACCGGTTTTCCCGGTAATCCGTATTTGTG (site TACTTGACTCA),0.00608
8,TACTTTCCATGGACCGGTTTTCCCGGTAATCCGTATTTGCG (site TACTTTCCTCG),1.29
9,TACTTTCCATGGACCGGTTTTCCCGGTAATCCGTATTTGCT (site TACTTTCCTAG),0.537
10,TACTTTGCATGGACCGGTTTTCCCGGTAATCCGTATTTGGA (site TACTTTGCTTC),0.0143
11,TAGAAATCATGGACCGGTTTTCCCGGTAATCCGTATTTGCG (site TAGAAATCTCG),2.05
12,TAGAAATCATGGACCGGTTTTCCCGGTAATCCGTATTTGCG (site TAGCAATCTCG),1.42
13,TAGAAATCATGGACCGGTTTTCCCGGTAATCCGTATTTGCG (site TAGGAATCTCG),1.44
14,TAGAAATCATGGACCGGTTTTCCCGGTAATCCGTATTTGCG (site TAGTAATCTCG),2.33
15,TAGAACACATGGACCGGTTTTCCCGGTAATCCGTATTTGTC (site TAGAACACTGA),2.34
16,TAGAAGACATGGACCGGTTTTCCCGGTAATCCGTATTTGCC (site TAGAAGACTGG),2.25
17,TAGAATACATGGACCGGTTTTCCCGGTAATCCGTATTTGTA (site TAGAATACTTA),1.55
18,TAGAATACATGGACCGGTTTTCCCGGTAATCCGTATTTGTA (site TAGAATACTTC),0.00357
19,TAGAATACATGGACCGGTTTTCCCGGTAATCCGTATTTGTA (site TAGAATACTTG),0.697

row,Sequence,recombinant UMI read abundance (log10)
1,TAGAATACATGGACCGGTTTTCCCGGTAATCCGTATTTGTA (site TAGAATACTTT),0.208
2,TAGAATACATGGACCGGTTTTCCCGGTAATCCGTATTTGTG (site TAGAATACTCA),2.01
3,TAGACGACATGGACCGGTTTTCCCGGTAATCCGTATTTGAC (site TAGACGACTGT),2.6
4,TAGACGGCATGGACCGGTTTTCCCGGTAATCCGTATTTGGC (site TAGACGGCTGC),2.75
5,TAGACTCCATGGACCGGTTTTCCCGGTAATCCGTATTTGCA (site TAGACTCCTTG),1.54
6,TAGCAATCATGGACCGGTTTTCCCGGTAATCCGTATTTGCG (site TAGAAATCTCG),0
7,TAGCAATCATGGACCGGTTTTCCCGGTAATCCGTATTTGCG (site TAGCAATCTCG),1.45
8,TAGCAATCATGGACCGGTTTTCCCGGTAATCCGTATTTGCG (site TAGGAATCTCG),0
9,TAGCAATCATGGACCGGTTTTCCCGGTAATCCGTATTTGCG (site TAGTAATCTCG),0.646
10,TAGCAGTCATGGACCGGTTTTCCCGGTAATCCGTATTTGTC (site TAGCAGTCTGA),2.39
11,TAGCCAGCATGGACCGGTTTTCCCGGTAATCCGTATTTGAA (site TAGCAAGCTTT),0.0207
12,TAGCCAGCATGGACCGGTTTTCCCGGTAATCCGTATTTGAA (site TAGCCAGCTTT),0.924
13,TAGCCAGCATGGACCGGTTTTCCCGGTAATCCGTATTTGAA (site TAGCGAGCTTT),0.0055
14,TAGCCAGCATGGACCGGTTTTCCCGGTAATCCGTATTTGAA (site TAGCTAGCTTT),0.00915
15,TAGCCTCCATGGACCGGTTTTCCCGGTAATCCGTATTTGGT (site TAGCCTACTAC),0.0161
16,TAGCCTCCATGGACCGGTTTTCCCGGTAATCCGTATTTGGT (site TAGCCTCCTAC),0.00993
17,TAGCCTCCATGGACCGGTTTTCCCGGTAATCCGTATTTGGT (site TAGCCTGCTAC),0.0298
18,TAGCCTCCATGGACCGGTTTTCCCGGTAATCCGTATTTGGT (site TAGCCTTCTAC),0
19,TAGCCTGCATGGACCGGTTTTCCCGGTAATCCGTATTTGGT (site TAGCCTACTAC),0.00931
